{
  "source": "paper PMC9090141",
  "about": "(Pediatric blood & cancer, 2021)",
  "tested_on": "pediatric patients with recurrent or refractory solid and CNS tumors",
  "key": {"[1]": {"details": "cycle 1, Dose Level 2 (N=5), 100 mg/m^2"}, "[2]": {"details": "cycle 1, Dose Level 3 (N=4), 125 mg/m^2"}, "[3]": {"details": "cycle 1, Dose Level 4 (N=10), 150 mg/m^2"}, "[4]": {"details": "cycle 1, drug-related, all dose levels, 25 evaluable"}},
  "note": "“Also recorded” adds a separate entry of the source. Structures can show the parent of a compound that is named as a salt. Where two headings read alike, the source gives them in different places.",
  "data": [
    {"smiles": "COc1cccc(OCCCN)c1-c1cc(Nc2cnc(C#N)cn2)n[nH]1", "note": "[prexasertib, Prexasertib mesylate monohydrate]", "values": [
      {"measurement": "Headache, ≥ Grade 3", "setting": "[1]", "value": "0 (0) No. (%)"},
      {"measurement": "Hypokalemia, All", "setting": "[1]", "value": "2 (40) No. (%)"},
      {"measurement": "Hypokalemia, ≥ Grade 3", "setting": "[1]", "value": "0 (0) No. (%)"},
      {"measurement": "Hypophosphatemia, All", "setting": "[1]", "value": "0 (0) No. (%)"},
      {"measurement": "Hypophosphatemia, ≥ Grade 3", "setting": "[1]", "value": "0 (0) No. (%)"},
      {"measurement": "Infusion-related reaction, All", "setting": "[1]", "value": "1 (20) No. (%)"},
      {"measurement": "Infusion-related reaction, ≥ Grade 3", "setting": "[1]", "value": "0 (0) No. (%)"},
      {"measurement": "Lymphocyte count decreased, All", "setting": "[1]", "value": "2 (40) No. (%)"},
      {"measurement": "Lymphocyte count decreased, ≥ Grade 3", "setting": "[1]", "value": "0 (0) No. (%)"},
      {"measurement": "Myalgia, All", "setting": "[1]", "value": "1 (20) No. (%)"},
      {"measurement": "Myalgia, ≥ Grade 3", "setting": "[1]", "value": "0 (0) No. (%)"},
      {"measurement": "Nausea, All", "setting": "[1]", "value": "1 (20) No. (%)"},
      {"measurement": "Nausea, ≥ Grade 3", "setting": "[1]", "value": "0 (0) No. (%)"},
      {"measurement": "Neutrophil count decreased, All", "setting": "[1]", "value": "5 (100) No. (%)"},
      {"measurement": "Neutrophil count decreased, ≥ Grade 3", "setting": "[1]", "value": "5 (100) No. (%)"},
      {"measurement": "Platelet count decreased, All", "setting": "[1]", "value": "5 (100) No. (%)"},
      {"measurement": "Platelet count decreased, ≥ Grade 3", "setting": "[1]", "value": "2 (40) No. (%)"},
      {"measurement": "Vomiting, All", "setting": "[1]", "value": "1 (20) No. (%)"},
      {"measurement": "Vomiting, ≥ Grade 3", "setting": "[1]", "value": "0 (0) No. (%)"},
      {"measurement": "White blood cell decreased, All", "setting": "[1]", "value": "5 (100) No. (%)"},
      {"measurement": "White blood cell decreased, ≥ Grade 3", "setting": "[1]", "value": "3 (60) No. (%)"},
      {"measurement": "Alanine aminotransferase increased, All", "setting": "[2]", "value": "0 (0) No. (%)"},
      {"measurement": "Alanine aminotransferase increased, ≥ Grade 3", "setting": "[2]", "value": "0 (0) No. (%)"},
      {"measurement": "Anemia, All", "setting": "[2]", "value": "3 (75) No. (%)"},
      {"measurement": "Anemia, ≥ Grade 3", "setting": "[2]", "value": "1 (25) No. (%)"},
      {"measurement": "Anorexia, All", "setting": "[2]", "value": "0 (0) No. (%)"},
      {"measurement": "Anorexia, ≥ Grade 3", "setting": "[2]", "value": "0 (0) No. (%)"},
      {"measurement": "Aspartate aminotransferase increased, All", "setting": "[2]", "value": "0 (0) No. (%)"},
      {"measurement": "Aspartate aminotransferase increased, ≥ Grade 3", "setting": "[2]", "value": "0 (0) No. (%)"},
      {"measurement": "Diarrhea, All", "setting": "[2]", "value": "0 (0) No. (%)"},
      {"measurement": "Diarrhea, ≥ Grade 3", "setting": "[2]", "value": "0 (0) No. (%)"},
      {"measurement": "Electrocardiogram QT corrected interval prolonged, All", "setting": "[2]", "value": "2 (50) No. (%)"},
      {"measurement": "Electrocardiogram QT corrected interval prolonged, ≥ Grade 3", "setting": "[2]", "value": "0 (0) No. (%)"},
      {"measurement": "Fatigue, All", "setting": "[2]", "value": "2 (50) No. (%)"},
      {"measurement": "Fatigue, ≥ Grade 3", "setting": "[2]", "value": "0 (0) No. (%)"},
      {"measurement": "Headache, All", "setting": "[2]", "value": "1 (25) No. (%)"},
      {"measurement": "Headache, ≥ Grade 3", "setting": "[2]", "value": "0 (0) No. (%)"},
      {"measurement": "Hypokalemia, All", "setting": "[2]", "value": "1 (25) No. (%)"},
      {"measurement": "Hypokalemia, ≥ Grade 3", "setting": "[2]", "value": "0 (0) No. (%)"},
      {"measurement": "Hypophosphatemia, All", "setting": "[2]", "value": "0 (0) No. (%)"},
      {"measurement": "Hypophosphatemia, ≥ Grade 3", "setting": "[2]", "value": "0 (0) No. (%)"},
      {"measurement": "Infusion-related reaction, All", "setting": "[2]", "value": "0 (0) No. (%)"},
      {"measurement": "Infusion-related reaction, ≥ Grade 3", "setting": "[2]", "value": "0 (0) No. (%)"},
      {"measurement": "Lymphocyte count decreased, All", "setting": "[2]", "value": "2 (50) No. (%)"},
      {"measurement": "Lymphocyte count decreased, ≥ Grade 3", "setting": "[2]", "value": "2 (50) No. (%)"},
      {"measurement": "Myalgia, All", "setting": "[2]", "value": "0 (0) No. (%)"},
      {"measurement": "Myalgia, ≥ Grade 3", "setting": "[2]", "value": "0 (0) No. (%)"},
      {"measurement": "Nausea, All", "setting": "[2]", "value": "0 (0) No. (%)"},
      {"measurement": "Nausea, ≥ Grade 3", "setting": "[2]", "value": "0 (0) No. (%)"},
      {"measurement": "Neutrophil count decreased, All", "setting": "[2]", "value": "4 (100) No. (%)"},
      {"measurement": "Neutrophil count decreased, ≥ Grade 3", "setting": "[2]", "value": "4 (100) No. (%)"},
      {"measurement": "Platelet count decreased, All", "setting": "[2]", "value": "4 (100) No. (%)"},
      {"measurement": "Platelet count decreased, ≥ Grade 3", "setting": "[2]", "value": "2 (50) No. (%)"},
      {"measurement": "Vomiting, All", "setting": "[2]", "value": "0 (0) No. (%)"},
      {"measurement": "Vomiting, ≥ Grade 3", "setting": "[2]", "value": "0 (0) No. (%)"},
      {"measurement": "White blood cell decreased, All", "setting": "[2]", "value": "4 (100) No. (%)"},
      {"measurement": "White blood cell decreased, ≥ Grade 3", "setting": "[2]", "value": "3 (75) No. (%)"},
      {"measurement": "Alanine aminotransferase increased, All", "setting": "[3]", "value": "1 (10) No. (%)"},
      {"measurement": "Alanine aminotransferase increased, ≥ Grade 3", "setting": "[3]", "value": "0 (0) No. (%)"},
      {"measurement": "Anemia, All", "setting": "[3]", "value": "8 (80) No. (%)"},
      {"measurement": "Anemia, ≥ Grade 3", "setting": "[3]", "value": "1 (10) No. (%)"},
      {"measurement": "Anorexia, All", "setting": "[3]", "value": "1 (10) No. (%)"},
      {"measurement": "Anorexia, ≥ Grade 3", "setting": "[3]", "value": "0 (0) No. (%)"},
      {"measurement": "Aspartate aminotransferase increased, All", "setting": "[3]", "value": "1 (10) No. (%)"},
      {"measurement": "Aspartate aminotransferase increased, ≥ Grade 3", "setting": "[3]", "value": "0 (0) No. (%)"},
      {"measurement": "Diarrhea, All", "setting": "[3]", "value": "1 (10) No. (%)"},
      {"measurement": "Diarrhea, ≥ Grade 3", "setting": "[3]", "value": "0 (0) No. (%)"},
      {"measurement": "Electrocardiogram QT corrected interval prolonged, All", "setting": "[3]", "value": "4 (40) No. (%)"},
      {"measurement": "Electrocardiogram QT corrected interval prolonged, ≥ Grade 3", "setting": "[3]", "value": "0 (0) No. (%)"},
      {"measurement": "Fatigue, All", "setting": "[3]", "value": "2 (20) No. (%)"},
      {"measurement": "Fatigue, ≥ Grade 3", "setting": "[3]", "value": "0 (0) No. (%)"},
      {"measurement": "Headache, All", "setting": "[3]", "value": "2 (20) No. (%)"},
      {"measurement": "Headache, ≥ Grade 3", "setting": "[3]", "value": "0 (0) No. (%)"},
      {"measurement": "Hypokalemia, All", "setting": "[3]", "value": "2 (20) No. (%)"},
      {"measurement": "Hypokalemia, ≥ Grade 3", "setting": "[3]", "value": "0 (0) No. (%)"},
      {"measurement": "Hypophosphatemia, All", "setting": "[3]", "value": "3 (30) No. (%)"},
      {"measurement": "Hypophosphatemia, ≥ Grade 3", "setting": "[3]", "value": "0 (0) No. (%)"},
      {"measurement": "Infusion-related reaction, All", "setting": "[3]", "value": "1 (10) No. (%)"},
      {"measurement": "Infusion-related reaction, ≥ Grade 3", "setting": "[3]", "value": "0 (0) No. (%)"},
      {"measurement": "Lymphocyte count decreased, All", "setting": "[3]", "value": "5 (50) No. (%)"},
      {"measurement": "Lymphocyte count decreased, ≥ Grade 3", "setting": "[3]", "value": "2 (20) No. (%)"},
      {"measurement": "Myalgia, All", "setting": "[3]", "value": "2 (20) No. (%)"},
      {"measurement": "Myalgia, ≥ Grade 3", "setting": "[3]", "value": "0 (0) No. (%)"},
      {"measurement": "Nausea, All", "setting": "[3]", "value": "3 (30) No. (%)"},
      {"measurement": "Nausea, ≥ Grade 3", "setting": "[3]", "value": "0 (0) No. (%)"},
      {"measurement": "Neutrophil count decreased, All", "setting": "[3]", "value": "10 (100) No. (%)"},
      {"measurement": "Neutrophil count decreased, ≥ Grade 3", "setting": "[3]", "value": "10 (100) No. (%)"},
      {"measurement": "Platelet count decreased, All", "setting": "[3]", "value": "8 (80) No. (%)"},
      {"measurement": "Platelet count decreased, ≥ Grade 3", "setting": "[3]", "value": "1 (10) No. (%)"},
      {"measurement": "Vomiting, All", "setting": "[3]", "value": "4 (40) No. (%)"},
      {"measurement": "Vomiting, ≥ Grade 3", "setting": "[3]", "value": "0 (0) No. (%)"},
      {"measurement": "White blood cell decreased, All", "setting": "[3]", "value": "10 (100) No. (%)"},
      {"measurement": "White blood cell decreased, ≥ Grade 3", "setting": "[3]", "value": "7 (70) No. (%)"},
      {"measurement": "grade 3/4 anemia, patients", "setting": "[4]", "value": 12, "unit": "%"},
      {"measurement": "grade 3/4 leukopenia, patients", "setting": "[4]", "value": 68, "unit": "%"},
      {"measurement": "grade 3/4 lymphopenia, patients", "setting": "[4]", "value": 24, "unit": "%"},
      {"measurement": "grade 3/4 neutropenia, patients", "setting": "[4]", "value": 100, "unit": "%"},
      {"measurement": "grade 3/4 thrombocytopenia, patients", "setting": "[4]", "value": 24, "unit": "%"},
      {"measurement": "dose-limiting toxicities (DLTs)", "setting": "cycle 1 or later, all dose levels 80-150 mg/m^2", "value": "no cycle 1 or later dose-limiting toxicities; also recorded: No DLTs"}
    ]}
  ]
}
